From ChEMBL document CHEMBL4507276 (2021)

Columns and labels:
[1] = target: Protein kinase C theta type (Homo sapiens) (UniProt Q04759); conditions: Compound concentration 1000.0 nM
[2] = target: Neuronal acetylcholine receptor; alpha4/beta2 (Homo sapiens) (UniProt P17787+P43681); test: N_NEURO_A4B2 Cerep selectivity data (BI); format: protein-complex assay; conditions: filed as agonist, Compound concentration 20.0 uM
[3] = target: T1, Tyrosine-protein kinase ITK/TSK (Homo sapiens) (UniProt Q08881); test: ITK Invitrogen selectivity data (BI); conditions: Compound concentration 3.0 uM
T1 sequence (whole entry): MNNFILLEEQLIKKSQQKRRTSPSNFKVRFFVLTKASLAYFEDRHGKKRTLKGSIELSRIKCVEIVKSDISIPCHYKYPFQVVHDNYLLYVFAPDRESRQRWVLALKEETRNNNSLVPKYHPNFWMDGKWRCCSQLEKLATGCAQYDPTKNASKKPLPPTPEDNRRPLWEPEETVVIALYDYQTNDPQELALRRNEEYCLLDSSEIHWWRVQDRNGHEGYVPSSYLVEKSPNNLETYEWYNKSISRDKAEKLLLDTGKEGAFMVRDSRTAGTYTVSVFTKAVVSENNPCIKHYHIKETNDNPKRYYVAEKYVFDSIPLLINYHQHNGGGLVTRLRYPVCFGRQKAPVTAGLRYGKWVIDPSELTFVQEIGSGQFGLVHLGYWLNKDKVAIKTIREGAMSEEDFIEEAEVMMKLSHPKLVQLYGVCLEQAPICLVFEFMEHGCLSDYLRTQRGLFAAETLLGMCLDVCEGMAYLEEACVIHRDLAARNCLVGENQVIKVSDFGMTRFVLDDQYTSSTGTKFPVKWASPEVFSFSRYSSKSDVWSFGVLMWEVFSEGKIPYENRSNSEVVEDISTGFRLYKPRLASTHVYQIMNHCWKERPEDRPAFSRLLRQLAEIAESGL

[4] = target: T2, Cyclin-dependent kinase 5/CDK5 activator 1 (Homo sapiens) (UniProt Q00535+Q15078); test: CDK5/P25 Invitrogen selectivity data (BI); format: protein-complex assay; conditions: Compound concentration 3.0 uM
T2 sequence (Q00535 whole entry): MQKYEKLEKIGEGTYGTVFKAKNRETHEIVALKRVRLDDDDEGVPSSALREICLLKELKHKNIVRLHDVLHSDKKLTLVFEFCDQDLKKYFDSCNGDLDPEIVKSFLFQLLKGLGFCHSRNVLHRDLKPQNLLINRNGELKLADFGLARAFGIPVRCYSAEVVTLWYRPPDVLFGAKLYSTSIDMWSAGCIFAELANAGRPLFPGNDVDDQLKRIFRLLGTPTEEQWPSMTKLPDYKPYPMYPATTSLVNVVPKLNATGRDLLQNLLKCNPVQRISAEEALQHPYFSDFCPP
T2 sequence (Q15078 99-307 partner limits assumed): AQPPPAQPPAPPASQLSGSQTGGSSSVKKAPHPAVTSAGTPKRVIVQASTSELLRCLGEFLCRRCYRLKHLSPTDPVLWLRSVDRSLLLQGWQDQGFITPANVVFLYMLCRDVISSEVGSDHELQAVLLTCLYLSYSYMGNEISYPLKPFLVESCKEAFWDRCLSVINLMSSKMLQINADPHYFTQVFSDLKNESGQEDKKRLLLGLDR

[5] = target: Dual specificity protein kinase CLK3 (Homo sapiens) (UniProt P49761); test: CLK3 Invitrogen selectivity data (BI); conditions: Compound concentration 3.0 uM
Sequence of Dual specificity protein kinase CLK3 (Homo sapiens) (P49761 whole entry, looked up): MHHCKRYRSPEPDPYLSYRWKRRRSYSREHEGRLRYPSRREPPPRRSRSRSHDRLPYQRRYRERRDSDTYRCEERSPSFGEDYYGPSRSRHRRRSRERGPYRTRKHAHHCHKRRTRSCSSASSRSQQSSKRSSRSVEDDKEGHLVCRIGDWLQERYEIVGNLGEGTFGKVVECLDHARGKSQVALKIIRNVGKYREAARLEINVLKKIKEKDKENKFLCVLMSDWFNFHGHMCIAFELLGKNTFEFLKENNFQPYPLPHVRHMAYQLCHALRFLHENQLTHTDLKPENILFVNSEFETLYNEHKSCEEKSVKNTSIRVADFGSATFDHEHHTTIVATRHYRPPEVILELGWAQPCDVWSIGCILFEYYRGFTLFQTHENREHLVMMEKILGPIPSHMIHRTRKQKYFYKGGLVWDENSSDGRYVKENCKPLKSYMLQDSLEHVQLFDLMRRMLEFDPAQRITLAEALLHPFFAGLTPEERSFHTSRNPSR

[6] = target: T2, Cyclin-dependent kinase 5/CDK5 activator 1 (Homo sapiens); test: CDK5/P35 Invitrogen selectivity data (BI); format: protein-complex assay; conditions: Compound concentration 3.0 uM
[7] = target: Prostaglandin F2-alpha receptor (Homo sapiens) (UniProt P43088); test: FPH_AGON Cerep selectivity data (BI); conditions: filed as agonist, Compound concentration 20.0 uM
Sequence of Prostaglandin F2-alpha receptor (Homo sapiens) (P43088 whole entry): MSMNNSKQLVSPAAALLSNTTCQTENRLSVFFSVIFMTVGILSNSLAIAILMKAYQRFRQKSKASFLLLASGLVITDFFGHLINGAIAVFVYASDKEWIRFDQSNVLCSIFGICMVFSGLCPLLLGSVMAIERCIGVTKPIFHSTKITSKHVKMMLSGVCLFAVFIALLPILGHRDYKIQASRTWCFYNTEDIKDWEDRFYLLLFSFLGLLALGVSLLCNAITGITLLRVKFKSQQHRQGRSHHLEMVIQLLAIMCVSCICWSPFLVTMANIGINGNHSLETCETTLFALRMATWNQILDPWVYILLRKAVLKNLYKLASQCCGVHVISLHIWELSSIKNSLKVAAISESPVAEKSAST

[8] = target: 3-phosphoinositide-dependent protein kinase 1 (Homo sapiens) (UniProt O15530); test: PDK1DIRECT Invitrogen selectivity data (BI); conditions: Compound concentration 3.0 uM
Sequence of 3-phosphoinositide-dependent protein kinase 1 (Homo sapiens) (O15530 whole entry, looked up): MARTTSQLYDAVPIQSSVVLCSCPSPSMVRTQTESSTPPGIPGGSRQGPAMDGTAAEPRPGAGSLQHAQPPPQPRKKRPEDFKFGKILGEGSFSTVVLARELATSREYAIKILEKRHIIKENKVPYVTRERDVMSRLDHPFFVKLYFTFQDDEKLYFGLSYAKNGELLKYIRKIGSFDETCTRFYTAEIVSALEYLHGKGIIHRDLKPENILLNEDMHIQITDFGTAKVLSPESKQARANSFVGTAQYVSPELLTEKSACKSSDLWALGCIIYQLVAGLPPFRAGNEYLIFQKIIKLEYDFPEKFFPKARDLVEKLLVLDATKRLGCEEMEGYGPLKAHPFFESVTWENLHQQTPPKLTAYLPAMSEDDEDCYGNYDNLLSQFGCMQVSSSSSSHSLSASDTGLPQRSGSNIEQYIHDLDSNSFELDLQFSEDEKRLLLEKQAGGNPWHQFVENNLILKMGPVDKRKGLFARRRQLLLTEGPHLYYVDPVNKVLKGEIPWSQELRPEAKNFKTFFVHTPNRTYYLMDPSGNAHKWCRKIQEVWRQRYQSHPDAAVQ

[9] = target: Tyrosine-protein kinase SYK (Homo sapiens) (UniProt P43405); test: SYK Invitrogen selectivity data (BI); conditions: Compound concentration 3.0 uM
[10] = target: Somatostatin receptor type 1 (Homo sapiens) (UniProt P30872); test: SST1H_AGON Cerep selectivity data (BI); conditions: filed as agonist, Compound concentration 20.0 uM
Sequence of Somatostatin receptor type 1 (Homo sapiens) (P30872 whole entry): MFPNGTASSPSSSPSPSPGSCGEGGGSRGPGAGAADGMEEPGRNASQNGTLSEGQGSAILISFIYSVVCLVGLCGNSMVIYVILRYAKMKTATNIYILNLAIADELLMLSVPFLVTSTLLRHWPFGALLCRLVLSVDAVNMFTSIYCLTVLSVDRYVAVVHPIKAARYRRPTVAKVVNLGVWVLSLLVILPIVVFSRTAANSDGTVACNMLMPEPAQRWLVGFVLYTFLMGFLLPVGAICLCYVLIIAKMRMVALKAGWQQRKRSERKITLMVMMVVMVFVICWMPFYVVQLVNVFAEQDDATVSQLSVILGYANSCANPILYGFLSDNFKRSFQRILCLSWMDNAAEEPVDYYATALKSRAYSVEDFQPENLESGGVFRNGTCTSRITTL

[11] = target: Dual specificity tyrosine-phosphorylation-regulated kinase 3 (Homo sapiens) (UniProt O43781); test: DYRK3 Invitrogen selectivity data (BI); conditions: Compound concentration 3.0 uM
Sequence of Dual specificity tyrosine-phosphorylation-regulated kinase 3 (Homo sapiens) (O43781 whole entry): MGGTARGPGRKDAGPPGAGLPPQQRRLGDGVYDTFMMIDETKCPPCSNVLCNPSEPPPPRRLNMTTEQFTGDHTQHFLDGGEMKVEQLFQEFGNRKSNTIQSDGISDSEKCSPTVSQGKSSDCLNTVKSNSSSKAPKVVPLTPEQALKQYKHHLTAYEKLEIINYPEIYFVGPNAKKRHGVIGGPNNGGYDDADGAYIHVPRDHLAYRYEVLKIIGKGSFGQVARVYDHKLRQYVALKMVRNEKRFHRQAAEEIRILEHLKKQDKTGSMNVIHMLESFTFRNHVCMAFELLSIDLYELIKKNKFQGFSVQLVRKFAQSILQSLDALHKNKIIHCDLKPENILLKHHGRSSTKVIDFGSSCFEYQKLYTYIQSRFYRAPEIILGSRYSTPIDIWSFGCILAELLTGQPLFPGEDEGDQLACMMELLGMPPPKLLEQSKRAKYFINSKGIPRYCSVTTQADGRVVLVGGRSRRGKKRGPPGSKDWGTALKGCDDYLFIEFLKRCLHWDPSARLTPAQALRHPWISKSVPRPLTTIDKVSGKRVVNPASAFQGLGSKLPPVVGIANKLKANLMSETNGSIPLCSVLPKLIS

Measured: residual activity

Sequence of Protein kinase C theta type (Homo sapiens) (Q04759 whole entry, looked up): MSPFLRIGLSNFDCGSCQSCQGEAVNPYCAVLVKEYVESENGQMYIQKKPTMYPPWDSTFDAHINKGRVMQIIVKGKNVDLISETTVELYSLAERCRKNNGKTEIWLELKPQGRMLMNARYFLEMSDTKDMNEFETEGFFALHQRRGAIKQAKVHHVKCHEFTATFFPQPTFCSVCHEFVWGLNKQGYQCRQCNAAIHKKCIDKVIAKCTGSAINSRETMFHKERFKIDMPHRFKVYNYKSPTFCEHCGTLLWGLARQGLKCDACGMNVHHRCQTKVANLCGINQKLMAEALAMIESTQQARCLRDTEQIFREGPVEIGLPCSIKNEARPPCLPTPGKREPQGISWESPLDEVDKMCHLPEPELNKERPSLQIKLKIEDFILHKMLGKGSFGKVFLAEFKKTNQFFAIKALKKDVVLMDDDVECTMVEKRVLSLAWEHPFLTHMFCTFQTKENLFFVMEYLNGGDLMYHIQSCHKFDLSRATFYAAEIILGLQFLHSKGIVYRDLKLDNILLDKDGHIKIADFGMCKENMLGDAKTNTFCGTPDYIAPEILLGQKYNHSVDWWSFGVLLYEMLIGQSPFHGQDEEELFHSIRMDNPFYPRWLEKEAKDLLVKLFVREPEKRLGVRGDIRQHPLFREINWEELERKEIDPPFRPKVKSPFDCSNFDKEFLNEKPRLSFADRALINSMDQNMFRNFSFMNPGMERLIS

CN(C)C(=O)Cn1cc(-c2nc(C3(c4ccc(-c5cnc(N)nc5)cc4)CC3)no2)cn1 [BI 0153]
inactive: [1] 89%

CN(C)C(=O)Cn1cc(-c2nc([C@@](C)(c3ccc(-c4cnc(N)nc4)cc3)C3CC3)no2)cn1 [BI 665915]
inactive: [2] 113% | [3] 94% | [4] 100% | [5] 95.5% | [6] 100% | [7] 84% | [8] 97% | [9] 90% | [10] 96% | [11] 102%
